Data from patent publication US20130203591A1, “PESTICIDAL MIXTURES INCLUDING ISOXAZOLINE DERIVATIVES” (SYNGENTA CROP PROTECTION LLC, priority 2010, published 2013).

Key:
Assay type in all cases: cell-based
[1] = system: Mycosphaerella arachidis (syn. Cercospora arachidicola); assay: Mycosphaerella arachidis (brown leaf spot of groundnut) growth inhibition in nutrient broth, microtiter plate
Experimental: Mycosphaerella arachidis (syn. Cercospora arachidicola), Brown Leaf Spot of Groundnut (Peanut):
(§1) Conidia of the fungus from cryogenic storage were directly mixed into nutrient broth (potato dextrose broth). After placing a (DMSO) solution of the test compounds into a microtiter plate (96-well format) the nutrient broth containing the fungal spores was added. The test plates were incubated at 24° C. and the inhibition of growth was determined photometrically after approximately 5-6 days at 620 nm.

Septoria tritici = Septoria tritici (leaf blotch) growth inhibition in nutrient broth, microtiter plate
Experimental: Septoria tritici (Leaf Blotch):
as §1, with “72 hours.” for “approximately 5-6 days at 620 nm.”

[2] = system: Glomerella lagenarium (syn. Colletotrichum lagenarium); assay: Glomerella lagenarium (anthracnose of cucurbits) growth inhibition in nutrient broth, microtiter plate
Experimental: Glomerella lagenarium (syn. Colletotrichum lagenarium), Anthracnose of Cucurbits:
as §1, with “72 hours” for “approximately 5-6 days”

Botrvtis cinerea = assay: Botrytis cinerea (gray mould) growth inhibition in nutrient broth, microtiter plate
Experimental: Botrvtis cinerea (Gray Mould):
as §1, with “72 hours.” for “approximately 5-6 days at 620 nm.”

Fusarium culmorum = Fusarium culmorum (root rot) growth inhibition in nutrient broth, microtiter plate; settings: for AVERAGE DEAD IN % COMPOUND I-A2: COMPOUND I-A2 alone, 48 hrs, 24° C.
Experimental: Fusarium culmorum (Root Rot):
as §1, with “48 hrs.” for “approximately 5-6 days at 620 nm.”

[3] = Fluxapyroxad alone 0.125 ppm AI

Cn1cc(C(=O)Nc2ccccc2-c2cc(F)c(F)c(F)c2)c(C(F)F)n1 [Fluxapyroxad]
AVERAGE DEAD IN % ([1]; Fluxapyroxad alone 0.015625 ppm AI): 0% | AVERAGE DEAD IN % ([1]; Fluxapyroxad alone 0.03125 ppm AI): 20% | AVERAGE DEAD IN % ([1]; Fluxapyroxad alone 0.0625 ppm AI): 50% | AVERAGE DEAD IN % [1, 3]: 90% | AVERAGE DEAD IN % ([1]; Fluxapyroxad alone 0.25 ppm AI): 100% | AVERAGE DEAD IN % (Septoria tritici; [3]): 20% | AVERAGE DEAD IN % (Septoria tritici; Fluxapyroxad alone 0.25 ppm AI): 70% | AVERAGE DEAD IN % (Septoria tritici; Fluxapyroxad alone 0.5 ppm AI): 100% | AVERAGE DEAD IN % (Septoria tritici; Fluxapyroxad alone 1 ppm AI): 100%

Cc1cc(C2=NOC(c3cc(Cl)cc(Cl)c3)(C(F)(F)F)C2)ccc1C(=O)NCC(=O)NCC(F)(F)F (stereo not shown) [I-A2]
AVERAGE DEAD IN % ([1]; I-A2 alone 0.1171875 ppm AI): 0% | AVERAGE DEAD IN % ([1]; I-A2 alone 0.234375 ppm AI): 0% | AVERAGE DEAD IN % ([1]; I-A2 alone 0.46875 ppm AI): 0% | AVERAGE DEAD IN % ([1]; I-A2 alone 0.9375 ppm AI): 0% | AVERAGE DEAD IN % ([1]; I-A2 alone 1.875 ppm AI): 0% | AVERAGE DEAD IN % ([1]; I-A2 alone 3.75 ppm AI): 0% | AVERAGE DEAD IN % ([1]; I-A2 alone 7.5 ppm AI): 0% | AVERAGE DEAD IN % ([1]; I-A2 alone 15 ppm AI): 0% | AVERAGE DEAD IN % ([2]; I-A2 alone 0.1171875 ppm AI): 0% | AVERAGE DEAD IN % ([2]; I-A2 alone 0.234375 ppm AI): 0% | AVERAGE DEAD IN % ([2]; I-A2 alone 0.46875 ppm AI): 0% | AVERAGE DEAD IN % ([2]; I-A2 alone 0.9375 ppm AI): 0% | AVERAGE DEAD IN % ([2]; I-A2 alone 1.875 ppm AI): 0% | AVERAGE DEAD IN % ([2]; I-A2 alone 3.75 ppm AI): 0% | AVERAGE DEAD IN % ([2]; I-A2 alone 7.5 ppm AI): 0% | AVERAGE DEAD IN % ([2]; I-A2 alone 15 ppm AI): 0% | AVERAGE DEAD IN % ([2]; I-A2 alone 30 ppm AI): 0% | AVERAGE DEAD IN % ([2]; I-A2 alone 60 ppm AI): 0% | AVERAGE DEAD IN % (Septoria tritici; I-A2 alone 0.1171875 ppm AI): 0% | AVERAGE DEAD IN % (Septoria tritici; I-A2 alone 0.234375 ppm AI): 0% | AVERAGE DEAD IN % (Septoria tritici; I-A2 alone 0.46875 ppm AI): 0% | AVERAGE DEAD IN % (Septoria tritici; I-A2 alone 0.9375 ppm AI): 0% | AVERAGE DEAD IN % (Septoria tritici; I-A2 alone 1.875 ppm AI): 0% | AVERAGE DEAD IN % (Septoria tritici; I-A2 alone 3.75 ppm AI): 0% | AVERAGE DEAD IN % (Septoria tritici; I-A2 alone 7.5 ppm AI): 0% | AVERAGE DEAD IN % (Septoria tritici; I-A2 alone 15 ppm AI): 0% | AVERAGE DEAD IN % (Septoria tritici; I-A2 alone 30 ppm AI): 0% | AVERAGE DEAD IN % (Septoria tritici; I-A2 alone 60 ppm AI): 0% | AVERAGE DEAD IN % (Botrvtis cinerea; I-A2 alone 0.46875 ppm AI): 0% | AVERAGE DEAD IN % (Botrvtis cinerea; I-A2 alone 0.9375 ppm AI): 0% | AVERAGE DEAD IN % (Botrvtis cinerea; I-A2 alone 1.875 ppm AI): 0% | AVERAGE DEAD IN % (Botrvtis cinerea; I-A2 alone 3.75 ppm AI): 0% | AVERAGE DEAD IN % (Botrvtis cinerea; I-A2 alone 7.5 ppm AI): 0% | AVERAGE DEAD IN % (Botrvtis cinerea; I-A2 alone 15 ppm AI): 0% | AVERAGE DEAD IN % (Botrvtis cinerea; I-A2 alone 30 ppm AI): 0% | AVERAGE DEAD IN % (Botrvtis cinerea; I-A2 alone 60 ppm AI): 0% | AVERAGE DEAD IN % COMPOUND I-A2 (Fusarium culmorum; 0.9375 PPM AI): 0% | AVERAGE DEAD IN % COMPOUND I-A2 (Fusarium culmorum; 1.875 PPM AI): 0% | AVERAGE DEAD IN % COMPOUND I-A2 (Fusarium culmorum; 3.75 PPM AI): 0% | AVERAGE DEAD IN % COMPOUND I-A2 (Fusarium culmorum; 7.5 PPM AI): 0% | AVERAGE DEAD IN % COMPOUND I-A2 (Fusarium culmorum; 15 PPM AI): 0% | AVERAGE DEAD IN % COMPOUND I-A2 (Fusarium culmorum; 30 PPM AI): 0% | AVERAGE DEAD IN % COMPOUND I-A2 (Fusarium culmorum; 60 PPM AI): 0% | AVERAGE DEAD IN % (Fusarium culmorum; I-A2 alone 3.75 ppm AI): 0% | AVERAGE DEAD IN % (Fusarium culmorum; I-A2 alone 7.5 ppm AI): 0% | AVERAGE DEAD IN % (Fusarium culmorum; I-A2 alone 15 ppm AI): 0% | AVERAGE DEAD IN % (Fusarium culmorum; I-A2 alone 30 ppm AI): 0% | AVERAGE DEAD IN % (Fusarium culmorum; I-A2 alone 60 ppm AI): 0%

O=C(Nc1ccccc1-c1ccc(Cl)cc1)c1cccnc1Cl [Boscalid]
AVERAGE DEAD IN % ([1]; Boscalid alone 0.125 ppm AI): 70% | AVERAGE DEAD IN % ([1]; Boscalid alone 0.25 ppm AI): 100% | AVERAGE DEAD IN % ([1]; Boscalid alone 0.5 ppm AI): 100% | AVERAGE DEAD IN % (Septoria tritici; Boscalid alone 0.25 ppm AI): 20% | AVERAGE DEAD IN % (Septoria tritici; Boscalid alone 0.5 ppm AI): 50% | AVERAGE DEAD IN % (Septoria tritici; Boscalid alone 1 ppm AI): 90% | AVERAGE DEAD IN % (Septoria tritici; Boscalid alone 2 ppm AI): 100% | AVERAGE DEAD IN % (Botrvtis cinerea; Boscalid alone 0.0625 ppm AI): 20% | AVERAGE DEAD IN % (Botrvtis cinerea; Boscalid alone 0.125 ppm AI): 20% | AVERAGE DEAD IN % (Botrvtis cinerea; Boscalid alone 0.25 ppm AI): 20% | AVERAGE DEAD IN % (Botrvtis cinerea; Boscalid alone 0.5 ppm AI): 50% | AVERAGE DEAD IN % (Botrvtis cinerea; Boscalid alone 1 ppm AI): 70% | AVERAGE DEAD IN % (Botrvtis cinerea; Boscalid alone 2 ppm AI): 90%
